In brackets after ≈: the same amount, converted by molar mass. Square brackets hold non-standard residues; d marks the D form. Peptide text beside a SMILES is read from it. Bip(4'-Cl) = N[C@@H](Cc1ccc(-c2ccc(Cl)cc2)cc1)C(=O)O; Bip(4'-Me) = Cc1ccc(-c2ccc(C[C@H](N)C(=O)O)cc2)cc1; Bip = N[C@@H](Cc1ccc(-c2ccccc2)cc1)C(=O)O; dBip = N[C@H](Cc1ccc(-c2ccccc2)cc1)C(=O)O; Phe(4-Br) = N[C@@H](Cc1ccc(Br)cc1)C(=O)O; Phe(4-Cl) = N[C@@H](Cc1ccc(Cl)cc1)C(=O)O; Phe(4-I) = N[C@@H](Cc1ccc(I)cc1)C(=O)O; Phe(4-Me) = Cc1ccc(C[C@H](N)C(=O)O)cc1

This assay has as its system Mupirocin-resistant MRSA ATCC-BAA-1556. The assay can be described thus: microbe, parasite or virus in culture. It counts as cell-based, Staphylococcus aureus. The note with it: ATCC-BAA-1556; read-out: MIC. The protocol:
The MICs of test compounds were determined using the microdilution method from the Clinical and Laboratory Standards Institute (CLSI) guidelines (Clinical and Laboratory Standards Institute. Methods for dilution antimicrobial susceptibility tests for bacteria that grow aerobically; approved standard—ninth edition. Document M07-A9. Vol. 32 No. 2. Wayne, Pa.: CLSI; 2012). Briefly, bacteria were grown fresh from frozen stock in Mueller Hinton 2 (MH2) agar at 37° C. After an overnight incubation, 5 bacteria colonies were selected to grow in cation-adjusted MH2 broth in a shaking incubator (140 RPM) at 37° C. Cells were grown to an optical density (OD600) of 0.15-0.16 determined using a spectrophotometer (Molecular Devices Spectra Max Plus), which corresponds to ˜1×10^8 CFU/mL. Test compounds were constituted into 4 mM DMSO stock solutions and then subjected to 2-fold serial dilution in a 96-well plate with concentrations ranging from 100 to 0.195 μM in duplicates. […] of microbial culture containing ˜1×10^6 CFU/mL of microbes in the respective broths was introduced into each well containing 50 μL of compound solution. After an overnight incubation at 35° C., (220 RPM), OD600 measurements were conducted using the microplate spectrophotometer. The MIC was defined as the lowest antibiotic or compound concentration (μM) required to inhibit bacteria growth.
The 11th well was used as the growth control well (medium with bacterial inoculums, no antibacterial) while the 12th well was the sterility control well (medium only).
For the molecule `N=C(N)NCCCCNC(=O)[C@H](Cc1ccc(-c2ccccc2)cc1)NC(=O)[C@H](CCCNC(=N)N)NC(=O)[C@@H](N)Cc1ccc(-c2ccccc2)cc1` [Compound 1], the MIC is listed as 12.5 µM (≈ 9.16 µg/mL). As to `N=C(N)NCCC[C@H](NC(=O)[C@H](Cc1ccc(-c2ccccc2)cc1)NC(=O)[C@H](CCCNC(=N)N)NC(=O)[C@@H](N)Cc1ccc(-c2ccccc2)cc1)C(N)=O` [Compound 3] (H-[Bip]R[Bip]R-NH2), the MIC is listed as 12.5 µM (≈ 9.7 µg/mL). For the molecule `N=C(N)NCCC[C@@H](NC(=O)[C@@H](Cc1ccc(-c2ccccc2)cc1)NC(=O)[C@@H](CCCNC(=N)N)NC(=O)[C@H](N)Cc1ccc(-c2ccccc2)cc1)C(N)=O` [Compound 4] (H-[dBip][dR][dBip][dR]-NH2), the MIC was 12.5 µM (≈ 9.7 µg/mL). As to `N=C(N)NCCC[C@H](NC(=O)[C@H](Cc1ccc(-c2ccccc2)cc1)NC(=O)[C@H](CCCNC(=N)N)NC(=O)[C@@H](N)Cc1ccccc1)C(N)=O` [Compound 5] (H-FR[Bip]R-NH2), the MIC is given as >100 µM. In the case of `N=C(N)NCCC[C@H](NC(=O)[C@H](Cc1ccccc1)NC(=O)[C@H](CCCNC(=N)N)NC(=O)[C@@H](N)Cc1ccc(-c2ccccc2)cc1)C(N)=O` [Compound 6] (H-[Bip]RFR-NH2) it was >100 µM; in that of `Cc1ccc(C[C@H](N)C(=O)N[C@@H](CCCNC(=N)N)C(=O)N[C@@H](Cc2ccc(-c3ccccc3)cc2)C(=O)N[C@@H](CCCNC(=N)N)C(N)=O)cc1` [Compound 7] (H-[Phe(4-Me)]R[Bip]R-NH2), 100 µM (≈ 71.4 µg/mL); in that of `Cc1ccc(C[C@H](NC(=O)[C@H](CCCNC(=N)N)NC(=O)[C@@H](N)Cc2ccc(-c3ccccc3)cc2)C(=O)N[C@@H](CCCNC(=N)N)C(N)=O)cc1` [Compound 8] (H-[Bip]R[Phe(4-Me)]R-NH2), >100 µM. In the case of `N=C(N)NCCC[C@H](NC(=O)[C@H](Cc1ccc(-c2ccccc2)cc1)NC(=O)[C@H](CCCNC(=N)N)NC(=O)[C@@H](N)Cc1ccc(Cl)cc1)C(N)=O` [Compound 9] (H-[Phe(4-Cl)]R[Bip]R-NH2) it was 100 µM (≈ 73.4 µg/mL). With `N=C(N)NCCC[C@H](NC(=O)[C@H](Cc1ccc(Cl)cc1)NC(=O)[C@H](CCCNC(=N)N)NC(=O)[C@@H](N)Cc1ccc(-c2ccccc2)cc1)C(N)=O` [Compound 10] (H-[Bip]R[Phe(4-Cl)]R-NH2), the MIC worked out at 100 µM (≈ 73.4 µg/mL). Regarding `N=C(N)NCCC[C@H](NC(=O)[C@H](Cc1ccc(-c2ccccc2)cc1)NC(=O)[C@H](CCCNC(=N)N)NC(=O)[C@@H](N)Cc1ccc(Br)cc1)C(N)=O` [Compound 11] (H-[Phe(4-Br)]R[Bip]R-NH2), the MIC is recorded as 50 µM (≈ 38.9 µg/mL). Regarding `N=C(N)NCCC[C@H](NC(=O)[C@H](Cc1ccc(Br)cc1)NC(=O)[C@H](CCCNC(=N)N)NC(=O)[C@@H](N)Cc1ccc(-c2ccccc2)cc1)C(N)=O` [Compound 12] (H-[Bip]R[Phe(4-Br)]R-NH2), the MIC was determined as 100 µM (≈ 77.9 µg/mL). `N=C(N)NCCC[C@H](NC(=O)[C@H](Cc1ccc(-c2ccccc2)cc1)NC(=O)[C@H](CCCNC(=N)N)NC(=O)[C@@H](N)Cc1ccc(I)cc1)C(N)=O` [Compound 13] (H-[Phe(4-I)]R[Bip]R-NH2): the MIC stood at 50 µM (≈ 41.3 µg/mL).

`N=C(N)NCCC[C@H](NC(=O)[C@H](Cc1ccc(I)cc1)NC(=O)[C@H](CCCNC(=N)N)NC(=O)[C@@H](N)Cc1ccc(-c2ccccc2)cc1)C(N)=O` [Compound 14] (H-[Bip]R[Phe(4-I)]R-NH2): the MIC was 100 µM (≈ 82.6 µg/mL). The value for `N=C(N)NCCC[C@H](NC(=O)[C@H](Cc1ccc(-c2ccccc2)cc1)NC(=O)[C@H](CCCNC(=N)N)NC(=O)[C@@H](N)Cc1ccc(-c2ccc(Cl)cc2)cc1)C(N)=O` [Compound 15] (H-[Bip(4'-Cl)]R[Bip]R-NH2) was 6.25 µM (≈ 5.07 µg/mL); that for `N=C(N)NCCC[C@H](NC(=O)[C@H](Cc1ccc(-c2ccc(Cl)cc2)cc1)NC(=O)[C@H](CCCNC(=N)N)NC(=O)[C@@H](N)Cc1ccc(-c2ccccc2)cc1)C(N)=O` [Compound 16] (H-[Bip]R[Bip(4'-Cl)]R-NH2) was 6.25 µM (≈ 5.07 µg/mL); that for `N=C(N)NCCC[C@H](NC(=O)[C@H](Cc1ccc(-c2ccccc2)cc1)NC(=O)[C@H](CCCNC(=N)N)NC(=O)[C@@H](N)Cc1ccc(-c2ccc(Cl)c(Cl)c2)cc1)C(N)=O` [Compound 17] was 6.25 µM (≈ 5.28 µg/mL). In the case of `N=C(N)NCCC[C@H](NC(=O)[C@H](Cc1ccc(-c2ccc(Cl)c(Cl)c2)cc1)NC(=O)[C@H](CCCNC(=N)N)NC(=O)[C@@H](N)Cc1ccc(-c2ccccc2)cc1)C(N)=O` [Compound 18] it was 6.25 µM (≈ 5.28 µg/mL); in that of `N=C(N)NCCC[C@H](NC(=O)[C@H](Cc1ccc(-c2ccccc2)cc1)NC(=O)[C@H](CCCNC(=N)N)NC(=O)[C@@H](N)Cc1ccc(-c2ccc(Br)cc2)cc1)C(N)=O` [Compound 19], 6.25 µM (≈ 5.34 µg/mL). `N=C(N)NCCC[C@H](NC(=O)[C@H](Cc1ccc(-c2ccc(Br)cc2)cc1)NC(=O)[C@H](CCCNC(=N)N)NC(=O)[C@@H](N)Cc1ccc(-c2ccccc2)cc1)C(N)=O` [Compound 20]: the MIC amounted to 6.25 µM (≈ 5.34 µg/mL).

With `Cc1ccc(-c2ccc(C[C@H](N)C(=O)N[C@@H](CCCNC(=N)N)C(=O)N[C@@H](Cc3ccc(-c4ccccc4)cc3)C(=O)N[C@@H](CCCNC(=N)N)C(N)=O)cc2)cc1` [Compound 21] (H-[Bip(4'-Me)]R[Bip]R-NH2), the MIC is given as 12.5 µM (≈ 9.87 µg/mL).

As for `Cc1ccc(-c2ccc(C[C@H](NC(=O)[C@H](CCCNC(=N)N)NC(=O)[C@@H](N)Cc3ccc(-c4ccccc4)cc3)C(=O)N[C@@H](CCCNC(=N)N)C(N)=O)cc2)cc1` [Compound 22] (H-[Bip]R[Bip(4'-Me)]R-NH2), the MIC is listed as 12.5 µM (≈ 9.87 µg/mL). The value for `CC(C)(C)c1ccc(-c2ccc(C[C@H](N)C(=O)N[C@@H](CCCNC(=N)N)C(=O)N[C@@H](Cc3ccc(-c4ccccc4)cc3)C(=O)N[C@@H](CCCNC(=N)N)C(N)=O)cc2)cc1` [Compound 23] was 12.5 µM (≈ 10.4 µg/mL); that for `CC(C)(C)c1ccc(-c2ccc(C[C@H](NC(=O)[C@H](CCCNC(=N)N)NC(=O)[C@@H](N)Cc3ccc(-c4ccccc4)cc3)C(=O)N[C@@H](CCCNC(=N)N)C(N)=O)cc2)cc1` [Compound 24] was 12.5 µM (≈ 10.4 µg/mL); that for `N=C(N)NCCC[C@H](NC(=O)[C@H](Cc1ccc(-c2ccccc2)cc1)NC(=O)[C@H](CCCNC(=N)N)NC(=O)[C@@H](N)Cc1ccc(-c2ccc(-c3ccccc3)cc2)cc1)C(N)=O` [Compound 25] was 100 µM (≈ 85.2 µg/mL). `N=C(N)NCCC[C@H](NC(=O)[C@H](Cc1ccc(-c2ccc(-c3ccccc3)cc2)cc1)NC(=O)[C@H](CCCNC(=N)N)NC(=O)[C@@H](N)Cc1ccc(-c2ccccc2)cc1)C(N)=O` [Compound 26]: the MIC is recorded as 25 µM (≈ 21.3 µg/mL). In the case of `N=C(N)NCCC[C@H](NC(=O)[C@H](Cc1ccc(-c2ccccc2)cc1)NC(=O)[C@H](CCCNC(=N)N)NC(=O)[C@@H](N)Cc1ccc(-c2cccc(Cl)c2)cc1)C(N)=O` [Compound 27], the MIC is on record as 6.25 µM (≈ 5.07 µg/mL). The value for `N=C(N)NCCC[C@H](NC(=O)[C@H](Cc1ccc(-c2cccc(Cl)c2)cc1)NC(=O)[C@H](CCCNC(=N)N)NC(=O)[C@@H](N)Cc1ccc(-c2ccccc2)cc1)C(N)=O` [Compound 28] was 6.25 µM (≈ 5.07 µg/mL); that for `CC(C)(C)c1cc(-c2ccc(C[C@H](N)C(=O)N[C@@H](CCCNC(=N)N)C(=O)N[C@@H](Cc3ccc(-c4ccccc4)cc3)C(=O)N[C@@H](CCCNC(=N)N)C(N)=O)cc2)cc(C(C)(C)C)c1` [Compound 29] was 50 µM (≈ 44.4 µg/mL).

The values above are taken from US20200157144A1, “ANTIMICROBIAL PEPTIDOMIMETICS” (priority 2017, published 2020).
